Data published in patent US12722014B2, “Method of treating drug resistant hypertension and heart failure with preserved ejection fraction by combined drug treatment with baropacing and beta blockers” (BaroPace, Inc., priority 2020, dated 2026).

What was measured:
[1] = Prospective study of BaroPacing (raising right atrial pacing rate) in 14 subjects with hypertension and dual chamber pacemakers; type: in vivo, human; settings: 8 patients taking either Metoprolol or Carvedilol vs 6 subjects not taking any beta blockers (p<0.004 in the latter)
Source text: I have prospectively studied 14 subjects with hypertension and dual chamber pacemakers, 6 not taking any beta blockers, and 8 taking either metoprolol or carvedilol. […] PressurePacing or BaroPacing is defined to include the algorithmically controlled pacing methodologies and programmable pacemakers as disclosed in PCT/US19/59703; PCT/US20/025447; PCT/US21/42622; and US Provisional filing 63/123,951, each and all incorporated herein by reference.

[2] = Published retrospective and prospective study of BaroPacing by BaroPace's clinical research team; type: in vivo, human; settings: current treatment with the beta blocker
Source text: Based on the observation that pacemaker implant in patients with drug resistant hypertension (DRH) and heart failure with preserved ejection fraction (HFpEF) lowers blood pressure and improves clinical outcomes, BaroPace, Inc. is developing technology to treat drug resistant hypertension and (HFpEF) by regulating cardiac pacemakers in real time in response to blood pressure (BaroPacing™). […] The BaroPacing research model offers a now-proven cost efficient means of screening ISA drugs such as pindolol and acebutolol to test this hypothesis. If proven true, besides a new patentable indication, such results could lead to a treatment paradigm shift and clinical revitalization of ISA beta blockers.

| SMILES | significant lowering of systolic blood pressure (>10 mmHg) by BaroPacing [1] | beneficial blood pressure lowering effects of BaroPacing [2] | improvement in New York Heart Association Class seen in HFpEF with BaroPacing [2] |
| --- | --- | --- | --- |
| COc1ccccc1OCCNCC(O)COc1cccc2[nH]c3ccccc3c12 (stereo not drawn) [Carvedilol] | lost | substantially blunts | substantially blunts |
| COCCc1ccc(OCC(O)CNC(C)C)cc1 (stereo not drawn) [Metoprolol, metoprolol] | lost | substantially blunts | substantially blunts |
